# Test results taken from patent publication US8192962B2, “Processes for detecting toxic substances” (Daikin Industries, Ltd., priority 2001, dated 2012).
# System: Genes belonging to other category
# Experiment: DNA chip mRNA expression in yeast, genes belonging to other category (Table 9)
# Type: cell-based, Saccharomyces cerevisiae S288C
# Summary of the method: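 First, S288C yeast grown in YPD at 25° C. are dosed in log phase with one toxicant (growth-inhibiting, not lethal) for 2 h. Next, total RNA is extracted and poly(A) mRNA isolated and reverse-transcribed with Cy3/Cy5-dUTP. Finally, whole-genome chip fluorescence is read relative to unexposed cells.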
smiles,measurement,setting,value
"S=C([S-])NCCNC(=S)[S-].[Zn+2] [(11), zinc N,N′-ethylenebis(dithiocarbamate)]",The level of expressed mRNA in the presence of chemical substance/The level of expressed mRNA in the absence of chemical substance,yeast gene YAR010C,0.9
same,The level of expressed mRNA in the presence of chemical substance/The level of expressed mRNA in the absence of chemical substance,yeast gene YBL005W-A,0.8
same,The level of expressed mRNA in the presence of chemical substance/The level of expressed mRNA in the absence of chemical substance,yeast gene YBL041W,1.6
same,The level of expressed mRNA in the presence of chemical substance/The level of expressed mRNA in the absence of chemical substance,yeast gene YBL043W,1.5
same,The level of expressed mRNA in the presence of chemical substance/The level of expressed mRNA in the absence of chemical substance,yeast gene YBL078C,4.6
same,The level of expressed mRNA in the presence of chemical substance/The level of expressed mRNA in the absence of chemical substance,yeast gene YBL101C,0.8
same,The level of expressed mRNA in the presence of chemical substance/The level of expressed mRNA in the absence of chemical substance,yeast gene YBL101W-A,1.2
same,The level of expressed mRNA in the presence of chemical substance/The level of expressed mRNA in the absence of chemical substance,yeast gene YBL102W,1.2
same,The level of expressed mRNA in the presence of chemical substance/The level of expressed mRNA in the absence of chemical substance,yeast gene YBR009C,0.8
same,The level of expressed mRNA in the presence of chemical substance/The level of expressed mRNA in the absence of chemical substance,yeast gene YBR031W,0.9
same,The level of expressed mRNA in the presence of chemical substance/The level of expressed mRNA in the absence of chemical substance,yeast gene YBR128C,1.3
same,The level of expressed mRNA in the presence of chemical substance/The level of expressed mRNA in the absence of chemical substance,yeast gene YBR177C,0.6
same,The level of expressed mRNA in the presence of chemical substance/The level of expressed mRNA in the absence of chemical substance,yeast gene YBR214W,3.2
same,The level of expressed mRNA in the presence of chemical substance/The level of expressed mRNA in the absence of chemical substance,yeast gene YBR239C,0.7
same,The level of expressed mRNA in the presence of chemical substance/The level of expressed mRNA in the absence of chemical substance,yeast gene YBR290W,1.2
same,The level of expressed mRNA in the presence of chemical substance/The level of expressed mRNA in the absence of chemical substance,yeast gene YCL020W,1.3
same,The level of expressed mRNA in the presence of chemical substance/The level of expressed mRNA in the absence of chemical substance,yeast gene YCL027W,0.9
same,The level of expressed mRNA in the presence of chemical substance/The level of expressed mRNA in the absence of chemical substance,yeast gene YCL067C,1.6
same,The level of expressed mRNA in the presence of chemical substance/The level of expressed mRNA in the absence of chemical substance,yeast gene YCR004C,1.9
same,The level of expressed mRNA in the presence of chemical substance/The level of expressed mRNA in the absence of chemical substance,yeast gene YCR039C,1.2
same,The level of expressed mRNA in the presence of chemical substance/The level of expressed mRNA in the absence of chemical substance,yeast gene YCR062W,1.2
same,The level of expressed mRNA in the presence of chemical substance/The level of expressed mRNA in the absence of chemical substance,yeast gene YCR067C,1.2
same,The level of expressed mRNA in the presence of chemical substance/The level of expressed mRNA in the absence of chemical substance,yeast gene YCR069W,1.3
same,The level of expressed mRNA in the presence of chemical substance/The level of expressed mRNA in the absence of chemical substance,yeast gene YCR071C,1.1
same,The level of expressed mRNA in the presence of chemical substance/The level of expressed mRNA in the absence of chemical substance,yeast gene YCR088W,1.0
same,The level of expressed mRNA in the presence of chemical substance/The level of expressed mRNA in the absence of chemical substance,yeast gene YCR096C,1.4
same,The level of expressed mRNA in the presence of chemical substance/The level of expressed mRNA in the absence of chemical substance,yeast gene YCR106W,1.2
same,The level of expressed mRNA in the presence of chemical substance/The level of expressed mRNA in the absence of chemical substance,yeast gene YDL008W,0.9
same,The level of expressed mRNA in the presence of chemical substance/The level of expressed mRNA in the absence of chemical substance,yeast gene YDL061C,1.4
same,The level of expressed mRNA in the presence of chemical substance/The level of expressed mRNA in the absence of chemical substance,yeast gene YDL143W,1.3
same,The level of expressed mRNA in the presence of chemical substance/The level of expressed mRNA in the absence of chemical substance,yeast gene YDL238C,1.1
same,The level of expressed mRNA in the presence of chemical substance/The level of expressed mRNA in the absence of chemical substance,yeast gene YDR055W,2.2
same,The level of expressed mRNA in the presence of chemical substance/The level of expressed mRNA in the absence of chemical substance,yeast gene YDR080W,1.2
same,The level of expressed mRNA in the presence of chemical substance/The level of expressed mRNA in the absence of chemical substance,yeast gene YDR084C,0.7
same,The level of expressed mRNA in the presence of chemical substance/The level of expressed mRNA in the absence of chemical substance,yeast gene YDR085C,1.7
same,The level of expressed mRNA in the presence of chemical substance/The level of expressed mRNA in the absence of chemical substance,yeast gene YDR104C,1.0
same,The level of expressed mRNA in the presence of chemical substance/The level of expressed mRNA in the absence of chemical substance,yeast gene YDR115W,1.2
same,The level of expressed mRNA in the presence of chemical substance/The level of expressed mRNA in the absence of chemical substance,yeast gene YDR181C,0.8
same,The level of expressed mRNA in the presence of chemical substance/The level of expressed mRNA in the absence of chemical substance,yeast gene YDR188W,0.9
same,The level of expressed mRNA in the presence of chemical substance/The level of expressed mRNA in the absence of chemical substance,yeast gene YDR257C,1.3
same,The level of expressed mRNA in the presence of chemical substance/The level of expressed mRNA in the absence of chemical substance,yeast gene YDR259C,1.2
same,The level of expressed mRNA in the presence of chemical substance/The level of expressed mRNA in the absence of chemical substance,yeast gene YDR264C,0.9
same,The level of expressed mRNA in the presence of chemical substance/The level of expressed mRNA in the absence of chemical substance,yeast gene YDR276C,1.4
same,The level of expressed mRNA in the presence of chemical substance/The level of expressed mRNA in the absence of chemical substance,yeast gene YDR304C,1.2
same,The level of expressed mRNA in the presence of chemical substance/The level of expressed mRNA in the absence of chemical substance,yeast gene YDR315C,1.1
same,The level of expressed mRNA in the presence of chemical substance/The level of expressed mRNA in the absence of chemical substance,yeast gene YDR358W,1.0
same,The level of expressed mRNA in the presence of chemical substance/The level of expressed mRNA in the absence of chemical substance,yeast gene YDR378C,0.8
same,The level of expressed mRNA in the presence of chemical substance/The level of expressed mRNA in the absence of chemical substance,yeast gene YDR382W,1.2
same,The level of expressed mRNA in the presence of chemical substance/The level of expressed mRNA in the absence of chemical substance,yeast gene YDR388W,1.6
same,The level of expressed mRNA in the presence of chemical substance/The level of expressed mRNA in the absence of chemical substance,yeast gene YDR407C,1.2
